Laboratory results published in patent US20250206707A1, “NOVEL COMPOUND INDUCING EXPRESSION OF ANTI-AGING GENE KLOTHO” (KLOTHO SCIENCES CO., LTD., priority 2022, published 2025).

Columns and labels:
klotho gene = test: Klotho gene mRNA expression by PCR in RPTECs; assay type: cell-based, human; settings: 6 hours exposure, FIG. 2
Protocol: Human renal tubular epithelial cells (RPTECs) were treated with each KS compound of Example 1 at different concentrations, and mRNA was collected from the cells 6 hours later, and the mRNA expression of the klotho gene was confirmed by PCR. Renal Proximal Tubular Epithelial Cells (RPTECs) were purchased from Lonza and cultured at 37° C., 5% CO2 and used in the experiments. Each KS compound was added to the medium of the cells and after 6 hours of exposure, RNA was isolated from the cells and converted to cDNA using reverse transcriptase and amplified by PCR method to determine the expression level. As a control, DMSO was added instead of the compound.
The primers used in the experiment are listed below.
The expression levels of the bands in the gel photographs were quantified using Image J and plotted on a graph. In the gel picture, the upper band represents the secreted form of klotho, and the lower band represents the membrane form of klotho.

[1] = test system: human retinal pigment epithelial cells (ARPE); test: Protective effect on retinal pigment epithelial cells against oxidative stress; assay type: cell-based; settings: 2.5 μM compound, BSO 50 mM for 6 hours, Cyto X absorbance 450 nm, FIG. 7
Protocol: To determine the preventive or therapeutic effect of each KS compound of Example 1 on macular degeneration, the protection of retinal pigment epithelial cells against oxidative stress was determined.
First, human retinal pigment epithelial cells were tested using retinal pigment epithelial cells (ARPE) purchased from ATCC, USA. Equal numbers of 10,000 ARPE cells were added to each well, and after 18 hours of incubation, the cells were replaced with DMEM F-12 medium without serum (FBS).
Each KS compound was added at a concentration of 2.5 μM, and the cells were treated with buthionine sulfoximine (BSO) at a concentration of 50 mM for 6 hours to induce oxidative stress. To measure the viability of these cells, Cyto X (Cell viability assay kit) was added and the time-varying absorbance was measured at 450 nm.

[2] = test system: Human retinal epithelial cells (ARPE); test: Cytotoxicity evaluation (EX-cytox absorbance); assay type: cell-based; settings: different concentrations, 24 hours incubation, EX-cytox 1 hour, FIG. 3
Protocol: Human retinal epithelial cells (ARPE) in culture were treated with KS compounds of Example 1 at different concentrations and incubated for 24 hours, followed by a 1-hour reaction with EX-cytox from GOGEN, and the change in absorbance was measured.

[3] = test system: intracellular reactive oxygen species (ROS) in renal tubule epithelial cells (RPTECs); test: Analysis of intracellular reactive oxygen species (ROS) in RPTECs; assay type: cell-based, human; settings: RPTEC cells, 2.5 µM compound, 6 h; FIG. 4
Protocol: Renal tubule epithelial cells (RPTECs) were treated with each KS compound of Example 1 to determine the changes in the amount of intracellular reactive oxygen species (ROS).
RPTEC cells in culture were incubated with 2.5 µM of each KS compound for 6 h. The amount of ROS present in the cells was measured by adding Reactive Oxygen Detection Reagents (Invitrogen) and incubating for 1 h. The change in fluorescence was measured using a spectrophotometer.
FIG. 4 is a graph showing the amount of ROS remaining in RPTEC cells. It was confirmed that the amount of ROS in the cells treated with KS103 and KS104 compounds was reduced by about 30% compared to the cells treated with solvent (DMSO) alone.

[4] = test system: TXN, AKT1, NR4A3, NLRP3, FOXP3 genes; test: Expression changes in oxidative stress-related genes (NGS) in aged RPTEC cells; assay type: cell-based, human; settings: 7th passage RPTEC, 2.5 μM, 6 hours, compared with 4-passage RPTEC, FIG. 5, FIG. 6
Protocol: 2.5 μM of each KS compound of Example 1 was added to relatively aged 7th passage (#7) renal tubular epithelial cells (RPTEC) cells, cultured for 6 hours, mRNA was collected, and total gene expression was analyzed using a next generation sequencer (NGS). To confirm changes in gene expression due to aging, through gene expression comparison with relatively young 4-passage (#4) RPTEC cells, genes with increased expression in young cells (TXN, AKT1, NR4A3, NLRP3, FOXP3 genes) were confirmed. The expression levels of these genes in young cells were compared to the expression change values caused by treatment with the compounds of Example 1 (senescent cells were treated with the compounds of Example 1, respectively).

[5] = Stability evaluation with human liver microsomes (MS/MS analysis); assay type: in vitro ADME; settings: human microsomes 0.5 mg/ml, 1 μM compound, 30 min, 37° C., with NADPH; tolbutamide as control; FIG. 1
Protocol: Each KS compound in Example 1 was dissolved in 10 mM DMSO, and tolbutamide, used as a standard, was dissolved in methanol at a concentration of 10 mM.
In a glass test tube (13×100 mm), 0.1 M KH2PO4 (147.5 μl), 0.1 M MgCl2 (25 μl), and 50 μl of human […] microsomes (mixed-gender pool) at a concentration of 0.5 mg/ml purchased from Corning Life Science and each KS compound solution were mixed to a final 1 μM of each KS compound solution, pre-incubated for 3 min in a shaking water bath (37° C., 40 rpm), and then incubated for 30 min in the presence or absence of 10 mM NADPH, 25 μL.
Aliquots of 50 μl were taken before the reaction and after the reaction, and then the reaction was stopped by adding […] of acetonitrile and vortexed for 1 min. The mixture was centrifuged (4,000 rpm, 4° C.) for 20 minutes, and each supernatant was transferred to a new glass test tube and dried for 2 hours using a centrifugal concentrator. After ensuring complete drying, 200 μl of 40% acetonitrile was added to each glass test tube and resuspended by vortexing for 1 minute. The resuspension solution was centrifuged for 10 minutes (4,000 rpm, 4° C.) and 150 μl of the supernatant was taken for HPLC-UV analysis. The Agilent 1200 series was used for HPLC-UV analysis and the Agilent 6410 was used for MS/MS analysis. The conditions used for the analysis were as follows: […]

| SMILES | ability to express the klotho gene compared to KS101 as well as other fluorine-bound compounds (klotho gene) | expression effect on the klotho gene (mRNA, sum of secreted and membrane form bands) (klotho gene; different concentrations, Image J quantification) | protection against oxidative stress-induced cell death [1] | cytotoxicity [2] | reduction of the amount of ROS in the cells compared to cells treated with solvent (DMSO) alone [3] | expression of oxidative stress-related genes in aged cells versus young cells [4] | microsomal stability [5] |
| --- | --- | --- | --- | --- | --- | --- | --- |
| Fc1ccc(Nc2nc3cc(F)c(F)cc3o2)cc1F [KS104, N-(3,4-difluorophenyl)-5,6-difluorobenzo[d]oxazol-2-amine] | more than doubled | best expression effect | inhibited oxidative stress-induced cell death | lowest cytotoxicity | about 30% | induced to a greater extent than in young cells | best microsomal stability |
| Fc1ccc2nc(Nc3ccc(F)c(F)c3)oc2c1 [KS103, N-(3,4-difluorophenyl)-6-fluorobenzo[d]oxazol-2-amine] |  |  | inhibited oxidative stress-induced cell death |  | about 30% |  |  |
